Assay results reported in ChEMBL document CHEMBL4359836, “Synthesis and Biological Assessment of Pyrrolobenzoxazine Scaffold as a Potent Antioxidant” (J Med Chem, 2019).
Active and inactive are the calls of the source. The calls are words filed in the database; no cut-off is given here.

Key:
Mitochondria [1] = assay: Antioxidant activity in goat cardiac mitochondria assessed as reversal of CuCl2/ascorbic acid-induced reduction in ICDH level at 8.25 uM using isocitrate as substrate after 1 hr (reference value: 65.58%); assay type: functional, subcellular; design: scale not given: the % may be the effect or the level left; settings: Capra hircus, Heart, Mitochrondria
[2] = Inhibition of succinate dehydrogenase in goat cardiac mitochondria assessed as effect on Vmax at 66 uM using succinate as substrate after 1 hr by Lineweaver-Burk double reciprocal plot analysis; design: species or system Capra hircus, Heart
Mitochondria [3] = assay: (§1) Protective activity against CuCl2/ascorbic acid-induced apoptotic alteration in goat cardiac mitochondria assessed as reversal of CuCl2/ascorbic acid-induced reduction in cytochrome c oxidoreductase activity incubated for 1 hr and measured at 10 secs time interval for 90 secs by spectrophotometric analysis; assay type: functional, subcellular; settings: Capra hircus; Heart; Mitochrondria
Mitochondria [4] = assay: as §1, with “oxidase” for “oxidoreductase”, “at 8.25 uM” for “incubated for 1 hr”, “analysis (reference value: 72.41%)” for “analysis”; assay type: functional, subcellular; design: scale not given: the % may be the effect or the level left; settings: Capra hircus, Heart, Mitochrondria
Mitochondria [5] = assay: Antioxidant activity in goat cardiac mitochondria assessed as inhibition of CuCl2/ascorbic acid-induced lipid peroxidation at 33 uM after 1 hr by thiobarbituric acid based UV-Visible spectrophotometric method (reference value: 60.11%); assay type: functional, subcellular; settings: Capra hircus, Heart, Mitochrondria
Mitochondria [6] = assay: as §1, with “oxidoreductase activity at 66 uM incubated for” for “oxidoreductase activity incubated for”, “spectrophotometric analysis (reference value: 47.82%)” for “spectrophotometric analysis”; assay type: functional, subcellular; design: scale not given: the % may be the effect or the level left; settings: Capra hircus, Heart, Mitochrondria
[7] = Binding affinity to Cu2+ assessed as binding constant K3 at 66 uM in presence of CuCl2 by isothermal titration calorimetry
[8] = Effect on alpha-KGDH levels in goat cardiac mitochondria at 8.25 to 66 uM using alpha-ketoglutarate as substrate after 1 hr; assay type: ADME, subcellular, Capra hircus, Heart, Mitochrondria
[9] = Effect on cytochrome c oxidoreductase activity in goat cardiac mitochondria at 8.25 to 66 uM incubated for 1 hr and measured at 10 secs time interval for 90 secs by spectrophotometric analysis; assay type: ADME, subcellular, Capra hircus, Heart, Mitochrondria
[10] = Antioxidant activity in pH 7.4 potassium phosphate buffer assessed as CuCl2/ascorbic acid induced hydroxyl radical scavenging activity by measuring deoxyribose degradation product formation after 20 mins by thiobarbituric acid based absorbance analysis; assay type: functional
Mitochondria [11] = assay: Antioxidant activity in goat cardiac mitochondria assessed as reversal of CuCl2/ascorbic acid-induced reduction in ICDH level at 33 uM using isocitrate as substrate after 1 hr relative to control; assay type: functional, subcellular; settings: Capra hircus, Heart, Mitochrondria
[12] = Binding affinity to Cu2+ assessed as binding constant K2 at 66 uM in presence of CuCl2 by isothermal titration calorimetry
Mitochondria [13] = assay: Antioxidant activity in goat cardiac mitochondria assessed as reversal of CuCl2/ascorbic acid-induced reduction in ICDH level at 66 uM using isocitrate as substrate after 1 hr relative to control; assay type: functional, subcellular; settings: Capra hircus, Heart, Mitochrondria
Mitochondria [14] = assay: Antioxidant activity in goat cardiac mitochondria assessed as reversal of CuCl2/ascorbic acid-induced reduction in ICDH level at 16.5 uM using isocitrate as substrate after 1 hr (reference value: 65.58%); assay type: functional, subcellular; design: scale not given: the % may be the effect or the level left; settings: Capra hircus, Heart, Mitochrondria
Mitochondria [15] = assay: Antioxidant activity in goat cardiac mitochondria assessed as reversal of CuCl2/ascorbic acid-induced reduction in GSH level after 1 hr by DTNB reagent based method; assay type: functional, subcellular; settings: Capra hircus; Heart; Mitochrondria
Capra hircus [16] = species: Capra hircus; assay: Effect on alpha-ketoglutarate dehydrogenase in goat cardiac mitochondria assessed as reversal of CuCl2/ascorbic acid induced reduction in Vmax at 66 uM using alpha-ketoglutarate as substrate by Lineweaver-Burk double reciprocal plot analysis; settings: Heart
[17] = Binding affinity to ascorbate at 66 uM in presence of ascorbic acid by isothermal titration calorimetry
[18] = Pro-oxidant activity in pH 7.4 potassium phosphate buffer assessed as reduction in CuCl2/ascorbic acid induced hydroxyl radical scavenging activity at > 66 uM in presence of deoxyribose by measuring deoxyribose degradation product formation after 20 mins by thiobarbituric acid based absorbance analysis
Mitochondria [19] = assay: Antioxidant activity in goat cardiac mitochondria assessed as inhibition of CuCl2/ascorbic acid-induced manganese superoxide dismutase at 33 uM after 1 hr by pyrogallol autoxidation method relative to control; assay type: functional, subcellular; settings: Capra hircus, Heart, Mitochrondria
Mitochondria [20] = assay: as §1, with “oxidase” for “oxidoreductase”, “at 66 uM” for “incubated for 1 hr and”, “analysis relative to control” for “analysis”; assay type: functional, subcellular; settings: Capra hircus, Heart, Mitochrondria
Capra hircus [21] = species: Capra hircus; assay: Effect on succinate dehydrogenase in goat cardiac mitochondria assessed as reversal of CuCl2/ascorbic acid induced reduction in Vmax at 66 uM using succinate as substrate after 1 hr by Lineweaver-Burk double reciprocal plot analysis; settings: Heart
Mitochondria [22] = assay: Protective activity in goat cardiac mitochondria assessed as inhibition of CuCl2/ascorbic acid-induced convoluted membranes at 66 uM incubated for 1 hr by scanning electron microscopy; assay type: functional, subcellular; settings: Capra hircus, Heart, Mitochrondria
Mitochondria [23] = assay: Antioxidant activity in goat cardiac mitochondria assessed as inhibition of CuCl2/ascorbic acid-induced manganese superoxide dismutase after 1 hr by pyrogallol autoxidation method; assay type: functional, subcellular; settings: Capra hircus; Heart; Mitochrondria
Mitochondria [24] = assay: Protection against CuCl2/ascorbic acid-induced depolarization of goat cardiac mitochondria at 66 uM after 60 mins by calcein AM dye-based flow cytometric analysis; assay type: functional, subcellular; settings: Capra hircus, Heart, Mitochrondria
[25] = Antioxidant activity in pH 10 Tris-HCl buffer assessed as superoxide anion radical scavenging activity by measuring rate of epinephrine auto-oxidation by spectrophotometric analysis; assay type: functional
[26] = Antioxidant activity in pH 7.4 potassium phosphate buffer assessed as CuCl2/ascorbic acid induced hydroxyl radical scavenging activity by measuring trolox equivalent antioxidant capacity by measuring IC50 Trolox/IC50 test compound ratio in presence of deoxyribose by thiobarbituric acid based absorbance analysis; assay type: functional
[27] = Binding affinity to ascorbate assessed as decrease in heat change at 66 uM in presence of ascorbic acid by isothermal titration calorimetry
[28] = Toxicity in goat cardiac mitochondria assessed as effect on calcium accumulation at 66 uM after 60 mins by calcein AM dye-based flow cytometric analysis; assay type: subcellular, Capra hircus, Heart, Mitochrondria; settings: 1 h
Mitochondria [29] = assay: Antioxidant activity in goat cardiac mitochondria assessed as reversal of CuCl2/ascorbic acid-induced reduction in PDH level at 16.5 uM using sodium pyruvate as substrate after 1 hr spectrophotometric analysis (reference value: 66.25%); assay type: functional, subcellular; design: scale not given: the % may be the effect or the level left; settings: Capra hircus, Heart, Mitochrondria
Mitochondria [30] = assay: Antioxidant activity in goat cardiac mitochondria assessed as inhibition of CuCl2/ascorbic acid-induced lipid peroxidation at 8.25 uM after 1 hr by thiobarbituric acid based UV-Visible spectrophotometric method (reference value: 60.11%); assay type: functional, subcellular; settings: Capra hircus, Heart, Mitochrondria
[31] = Antioxidant activity in pH 7.4 phosphate buffer assessed as DPPH radical scavenging activity by measuring trolox equivalent antioxidant capacity by measuring IC50 Trolox/IC50 test compound ratio after 30 mins by spectrophotometric analysis; assay type: functional
[32] = Effect on ICDH levels in goat cardiac mitochondria at 8.25 to 66 uM using isocitrate as substrate after 1 hr; assay type: ADME, subcellular, Capra hircus, Heart, Mitochrondria
Mitochondria [33] = assay: Antioxidant activity in goat cardiac mitochondria assessed as reversal of CuCl2/ascorbic acid-induced reduction in GSH level at 8.25 uM after 1 hr by DTNB reagent based method (reference value: 75.89%); assay type: functional, subcellular; design: scale not given: the % may be the effect or the level left; settings: Capra hircus, Heart, Mitochrondria
[34] = Binding affinity to Cu2+ assessed as decrease in heat change at 66 uM in presence of CuCl2 by isothermal titration calorimetry
Mitochondria [35] = assay: Antioxidant activity in goat cardiac mitochondria assessed as inhibition of CuCl2/ascorbic acid-induced lipid peroxidation at 66 uM after 1 hr by thiobarbituric acid based UV-Visible spectrophotometric method (reference value: 60.11%); assay type: functional, subcellular; settings: Capra hircus, Heart, Mitochrondria
[36] = Binding affinity to Cu2+ assessed as binding constant K4 at 66 uM in presence of CuCl2 by isothermal titration calorimetry

- inhibition (INH) [2]: Not Active
- Activity (Mitochondria [3]): Dose-dependent effect
- Activity (Mitochondria [4]): 56.2%
- Activity (Mitochondria [6]): 85.2%
- K [7]: 1.04 ×10⁵ /M
- IC50 [10]: 11 µM
- K [12]: 9.55 ×10⁴ /M
- Activity (Capra hircus [16]): Active
- K [17]: 4.6 ×10³ /M
- fold change (FC) (Mitochondria [20]): 5.12
- Activity (Capra hircus [21]): Active
- Activity [27]: Active
- Activity [34]: Active
- K [36]: 9 ×10⁴ /M
SMILES: CCOC(=O)c1c(-c2ccc(O)c(OC)c2)cn2c1c(=O)oc1ccccc12
- Activity (Mitochondria [1]): 37.7%
- inhibition (Mitochondria [5]): 28.2%
- Activity [8]: Non-Toxic
- Activity [9]: Non-Toxic
- Activity [10]: Dose-dependent effect
- MEC [10]: 66 µM
- fold change (FC) (Mitochondria [11]): 2.4
- fold change (FC) (Mitochondria [13]): 3.52
- Activity (Mitochondria [14]): 75.5%
- Activity (Mitochondria [15]): Dose-dependent effect
- Activity [18]: Active
- inhibition (Mitochondria [19]): 41.6%
- Activity (Mitochondria [22]): Active
- Activity (Mitochondria [23]): Dose-dependent effect
- Activity (Mitochondria [24]): Active
- Activity [25]: Dose-dependent effect
- Ratio IC50 [26]: 0.9
- Activity [28]: Non-Toxic
- Activity (Mitochondria [29]): 94.5%
- inhibition (Mitochondria [30]): 12.3%
- Ratio IC50 [31]: 0.78
- Activity [32]: Non-Toxic
- Activity (Mitochondria [33]): 79.6%
- inhibition (Mitochondria [35]): 36.4%
